The record followed here is ChEMBL document CHEMBL3301472, “MMV Malaria Box HIV and cytotoxicity screening”.

The subject of data set [1] is Human immunodeficiency virus 1. The experiment in a line: MMV: HIV CXCR4-tropic env NL4-3 pseudovirus assay produces luciferase signal in lieu of replicating viral particles Day 3 pi, U87-CD4-CXCR4, % inhibition at 5 mM compound. The class given is functional. Also noted: dose or concentration left out as unconfirmed. The note with it: Human immunodeficiency virus 1, NL4-3, U87.CD4.CXCR4, 72 h.

The nature of data set [2]: MMV: MTT Cytotoxicity Assay Day 3 pi, U87-CD4-CCR5 cells, % cell death @ 5mM compound. Type of data set: toxicity, cell-based. To be noted: human, u87-cd4-ccr5, 5000 µM.
The nature of data set [3]: MMV: MTT Cytotoxicity Assay Day 3 pi, U87-CD4-CXCR4 cells, % cell death @ 5mM compound. Type of data set: toxicity, cell-based. To be noted: human, u87-cd4-cxcr4, 5000 µM.
A short description of data set [4]: MMV: MTT Cytotoxicity Assay Day 7 pi of Assay #6 (compound washed out Day 1 pi), U87-CD4-CCR5 cells, % cell death @ 5mM compound. The class given is toxicity, cell-based. To be noted: human, u87-cd4-ccr5, 5000 µM.
A short description of data set [5]: MMV: MTT Cytotoxicity Assay Day 7 pi of Assay #7 (compound washed out Day 1 pi), U87-CD4-CXCR4 cells, % cell death @ 5mM compound. The class given is toxicity, cell-based. To be noted: human, u87-cd4-cxcr4, 5000 µM.
The nature of data set [6]: MMV: MTT Cytotoxicity Assay Day 7 pi of Assay #10 (NO washout), U87-CD4-CCR5 cells, % cell death @ 5mM compound. The class given is toxicity, cell-based. To be noted: human, u87-cd4-ccr5, 5000 µM.
A short description of data set [7]: MMV: MTT Cytotoxicity Assay Day 7 pi of Assay #11 (NO washout), U87-CD4-CXCR4 cells, % cell death @ 5mM compound. The note with it: human, u87-cd4-cxcr4, 5000 µM. Type of data set: toxicity, cell-based.

`Cn1c(C(=O)c2cccc3ccccc23)nc2ccccc21`: the inhibition in data set [1] was determined as 9%. The “% Cell Death” value in data set [2] is given as -32; in data set [3] it was 32; in data set [4], -37; in data set [5] it was -12; in data set [6], 2; in data set [7], -77.

On to `CSc1ccccc1C(=O)Nc1nc(-c2ccccn2)cs1`, for which the inhibition in data set [1] came out at 4%. Moreover, the “% Cell Death” value in data set [2] is given as 28; in data set [3], 86; in data set [4] it was 18; in data set [5], 28; in data set [6] it was 3; in data set [7], 2.

For the compound `O=C(Nc1ccc(Br)cc1)Nc1cccc(Cl)c1`, the inhibition in data set [1] was 9%. The “% Cell Death” value in data set [2] is 9; in data set [3], 22; in data set [4], 8; in data set [5] it was -4; in data set [6], 44; in data set [7], 64.

As for `COc1ccc(C2NCCc3c2[nH]c2ccccc32)cc1CN1CCN(c2ccc(F)cc2)CC1.Cl` (configuration not stated), the inhibition in data set [1] is 3%. The “% Cell Death” value is given as 27 in data set [2]; 35 in data set [3]; 24 in data set [4]; -8 in data set [5]; 14 in data set [6]; -62 in data set [7].

For the compound `CC(NCc1ccccc1)c1cc(Cl)ccc1O` (configuration not stated), the inhibition in data set [1] was 6%. Further, the “% Cell Death” value in data set [2] is reported as 1; in data set [3], 6; in data set [4] it was -2; in data set [5] it was -15; in data set [6] it was 26; in data set [7], -3.

As for `COc1ccc(C(C)=O)cc1N1C(=O)C2C(C1=O)C1(c3ccccc3)C(=O)C2(c2ccccc2)C(c2ccc(C)cc2)=C1c1ccc(C)cc1` (configuration not stated), the inhibition in data set [1] came out at 3%. The “% Cell Death” value was 28 in data set [2]; 39 in data set [3]; 2 in data set [4]; 14 in data set [5]; 16 in data set [6]; 5 in data set [7].

`CCOc1cc2c(cc1OCC)C(c1cc(OC)c(O)cc1Cl)NCC2` (configuration not stated): the inhibition in data set [1] is 10%. The “% Cell Death” value in data set [2] was 31; in data set [3], 1; in data set [4], 7; in data set [5], -19; in data set [6], 25; in data set [7], 20.

Turning to `CCn1c(CN2CCN(Cc3ccccc3)CC2)nc2cc(NC(=O)c3cccs3)ccc21`, the inhibition in data set [1] stood at 1%. Further, the “% Cell Death” value was 21 in data set [2]; 21 in data set [3]; 12 in data set [4]; -27 in data set [5]; 10 in data set [6]; -27 in data set [7].

As to `COc1ccc(CN2CCN(Cc3ccccc3)CC2)c(O)c1`, the inhibition in data set [1] was -2%. Moreover, the “% Cell Death” value is listed as 16 in data set [2]; -16 in data set [3]; -1 in data set [4]; 53 in data set [5]; 4 in data set [6]; 10 in data set [7].

Regarding `CCN(CC)c1cc(C)c2cc(NC(=O)c3cccc(OC)c3)ccc2n1`, in data set [1], the inhibition stood at 7%. The “% Cell Death” value in data set [2] was -1; in data set [3], 5; in data set [4], 3; in data set [5], -25; in data set [6], 39; in data set [7], -2.

Consider `Cc1cc(Nc2ccc(Cl)cc2)n2nc(C(F)(F)F)nc2n1`, for which the inhibition in data set [1] came out at 2%. Also, the “% Cell Death” value is given as 27 in data set [2]; 12 in data set [3]; 46 in data set [4]; -20 in data set [5]; 56 in data set [6]; -18 in data set [7].

Broadly, the inhibition is the relative decrease from the control value, in per cent.
